SMILES strings stand for the structures.

This data set can be described thus: UV absorption of 5 ppm Octylmethoxy Cinnamate dissolved in different oil bodies (absorption increase). It is filed as physicochemical. The conditions noted are these: for Absorptionssteigerung: 5 ppm Octylmethoxy Cinnamate in the oil body, 1-cm cuvette, 308 nm, absorption in Mineralöl taken as 100 %. An excerpt: Zur Bestimmung der Absorptionssteigerung wurden Lösungen von 5 ppm Octylmethoxy Cinnamate in verschiedenen Ölkörpern hergestellt und die UV-Absorption in einer 1-cm Küvette bei einer Wellenlänge von 308 nm bestimmt. Die Absorption in Mineralöl wurde dazu als 100 % angenommen und alle übrigen Absorptionen dazu ins Verhältnis gesetzt. Des weiteren wurden verschiedene UV-Filter (OT = Octyl Triazone; BMDBM = Butyl Methoxydibenzoylmethane; B3 = Benzophenone-3 und 4MBC = 4-Methylbenzyliden Camphor) in den Ölkörpern in der Wärme gelöst und die Löslichkeit bei 15°C bestimmt. Die Ergebnisse sind in Tabelle 1 zusammengefaßt. Tabelle 1

With `CCCCOC(=O)CCCCC(=O)OCCCC` [Dibutyl Adipate], the Absorptionssteigerung amounted to 117%. Where the note is “result in words, comparison of all tested oil bodies”, the “UV-Absorption unterstützt” value was “am stärksten”. In turn, `CCCCCCCCOCCCCCCCC` [Dicaprylyl Ether, reference compound] had an Absorptionssteigerung of 105%.

The record behind these values is EP0950398A2, “Use of esters as dispersants or solvents in sunscreens and solar protection pigments” (Henkel Kommanditgesellschaft auf Aktien, priority 1998, dated 1999).
